Experimental data: patent US20250032485A1, “APPLICATION OF IMIDAZO [1,2-A] PYRAZINE COMPOUNDS OR THEIR PHARMACEUTICALLY ACCEPTABLE SALTS IN THE PREPARATION OF ANTI-CORONAVIRUS DRUGS” (GUANGZHOU MEDICAL UNIVERSITY, priority 2023, published 2025)

Target: PLpro of SARS-CoV-2 (Severe acute respiratory syndrome coronavirus 2, UniProt P0DTD1)
Assay: Enzyme activity test in vitro: inhibition of PLpro at fixed concentration 50 μM (RLRGG-AMC substrate)
Assay type: biochemical
Conditions: read-out: Inhibition rate at 50 μM (%)

First: CCNC(=O)c1ccc(Nc2c(-c3ccc(C)cc3)nc3cnccn23)cc1 [P22412, N-ethyl-4-[[2-(4-methylphenyl)imidazo [1,2-a]pyrazin-3-yl]amino]benzamide]
Second: Cc1ccc(-c2nc3cnccn3c2Nc2ccc(C(=O)NCCN(C)C)cc2)cc1 [P22453, N-[2-(dimethylamino)ethyl]-4-[[2-(4-methylphenyl)imidazo [1,2-a]pyrazin-3-yl]amino]benzamide]
The inhibition at 50 µM of the first is lower: 33.5% for the first, 36.6% for the second.

Going from `O=C(NCCN1CCOCC1)c1ccc(Nc2c(-c3ccc(Cl)cc3)nc3cnccn23)cc1` [P22413, 4-[[2-(4-chlorophenyl)imidazo[1,2-a]pyrazin-3-yl]amino]-N-(2-morpholin-4-ylethyl)benzamide] to `O=C(NCCN1CCOCC1)c1cccc(Nc2c(-c3ccc(Cl)cc3)nc3cnccn23)c1` [P22447, 3-[[2-(4-chlorophenyl)imidazo[1,2-a]pyrazin-3-yl]amino]-N-(2-morpholin-4-ylethyl)benzamide], the inhibition at 50 µM rises from 36.1% to 41.9%.

Compared with `CNC(=O)c1cccc(Nc2c(-c3ccccc3)nc3cnccn23)c1` [P22416, N-methyl-3-[(2-phenylimidazo[1,2-a]pyrazin-3-yl)amino] benzamide], `CCNC(=O)c1cccc(Nc2c(-c3ccccc3)nc3cnccn23)c1` [P22446, N-ethyl-3-[(2-phenyl-imidazo[1,2-a]pyrazin-3-yl)amino] benzamide] is higher in inhibition at 50 µM: 30.2% for the first, 44.4% for the second.

Going from `CSc1ccc(-c2nc3cnccn3c2Nc2cccc(C(=O)NC(C)C)c2)cc1` [P22417, 3-[[2-(4-methyl-sulfanylphenyl)imidazo [1,2-a]pyrazin-3-yl]amino]-N-propan-2-ylbenzamide] to `CNC(=O)c1cccc(Nc2c(-c3ccc(SC)cc3)nc3cnccn23)c1` [P22436, N-methyl-3-[[2-(4-methylsulfanylphenyl)imidazo[1,2-a]pyrazin-3-yl]amino] benzamide], the inhibition at 50 µM falls from 43.4% to 31.3%.

Compared with `CSc1ccc(-c2nc3cnccn3c2Nc2cccc(C(=O)NCC3CCCO3)c2)cc1` (centres unmarked) [P22418, 3-[[2-(4-methyl-sulfanylphenyl)imidazo [1,2-a]pyrazin-3-yl]amino]-N-(oxolan-2-ylmethyl)benzamide], `CCNC(=O)c1cccc(Nc2c(-c3ccc(SC)cc3)nc3cnccn23)c1` [P22466, N-ethyl-3-[[2-(4-methylsulfanylphenyl)imidazo[1,2-a]pyrazin-3-yl]amino] benzamide] is lower in inhibition at 50 µM: 34.5% for the first, 22.2% for the second.

Going from `COc1ccc(-c2nc3cnccn3c2Nc2ccc(C(=O)NC(C)C)cc2)cc1OC` [P22420, 4-[[2-(3,4-dimethoxy-phenyl)imidazo[1,2-a]pyrazin-3-yl]amino]-N-propan-2-ylbenzamide] to `COc1ccc(-c2nc3cnccn3c2Nc2ccc(C(=O)NC(C)C)cc2)cc1` [P22432, 4-[[2-(4-methoxy-phenyl)imidazo[1,2-a]pyrazin-3-yl]amino]-N-propan-2-ylbenzamide], the inhibition at 50 µM falls from 43.9% to 42.2%.

First: CSc1ccc(-c2nc3cnccn3c2Nc2ccc(C(=O)N3CCOCC3)cc2)cc1 [P22425, [4-[[2-(4-methyl-sulfanylphenyl)imidazo [1,2-a]pyrazin-3-yl]amino]phenyl]-morpholin-4-ylmethanone]
Second: CSc1ccc(-c2nc3cnccn3c2Nc2cccc(C(=O)N3CCOCC3)c2)cc1 [P22439, [3-[[2-(4-methyl-sulfanylphenyl)imidazo [1,2-a]pyrazin-3-yl]amino]phenyl]-morpholin-4-ylmethanone]
The inhibition at 50 µM of the first is higher: 40.7% for the first, 23.2% for the second.

Compared with `O=C(NCCN1CCOCC1)c1cccc(Nc2c(-c3ccccc3)nc3cnccn23)c1` [P22427, N-[2-(1,4-oxazinan-4-yl)ethyl]-3-[(2-phenylimidazo[1,2-a]pyrazin-3-yl)amino] benzamide], `COc1ccc(-c2nc3cnccn3c2Nc2cccc(C(=O)NCCN3CCOCC3)c2)cc1` [P22437, 3-[[2-(4-methoxy-phenyl)imidazo[1,2-a]pyrazin-3-yl]amino]-N-(2-morpholin-4-ylethyl)benzamide] is higher in inhibition at 50 µM: 22.8% for the first, 24.2% for the second.

Compared with `O=C(c1cccc(Nc2c(-c3ccc(Cl)cc3)nc3cnccn23)c1)N1CCOCC1` [P22429, [3-[[2-(4-chlorophenyl)imidazo[1,2-a]pyrazin-3-yl]amino]phenyl]-morpholin-4-ylmethanone], `CCNC(=O)c1cccc(Nc2c(-c3ccc(Cl)cc3)nc3cnccn23)c1` [P22456, 3-[[2-(4-chlorophenyl)imidazo[1,2-a]pyrazin-3-yl]amino]-N-ethylbenzamide] is higher in inhibition at 50 µM: 24.7% for the first, 30.3% for the second.

Compared with `CN(C)CCNC(=O)c1ccc(Nc2c(-c3ccccc3)nc3cnccn23)cc1` [P22433, N-[2-(dimethylamino)ethyl]-4-[(2-phenyl-imidazo[1,2-a]pyrazin-3-yl)amino] benzamide], `CCNC(=O)c1ccc(Nc2c(-c3ccccc3)nc3cnccn23)cc1` [P22461, N-ethyl-4-[(2-phenyl-imidazo[1,2-a]pyrazin-3-yl)amino] benzamide] is higher in inhibition at 50 µM: 30.5% for the first, 32.3% for the second.

Compared with `Cc1ccc(-c2nc3cnccn3c2Nc2ccc(C(=O)NC3CCCCC3)cc2)cc1` [P22434, N-cyclohexyl-4-[[2-(4-methylphenyl)imidazo[1,2-a]pyrazin-3-yl]amino]benzamide], `COc1ccc(-c2nc3cnccn3c2Nc2ccc(C(=O)NC3CCCCC3)cc2)cc1OC` [P22450, N-cyclohexyl-4-[[2-(3,4-dimethoxyphenyl)imidazo[1,2-a]pyrazin-3-yl]amino] benzamide] is lower in inhibition at 50 µM: 41.1% for the first, 20.8% for the second.

Compared with `O=C(NCc1ccco1)c1ccc(Nc2c(-c3ccccc3)nc3cnccn23)cc1` [P22435, N-(furan-2-ylmethyl)-4-[(2-phenylimidazo [1,2-a]pyrazin-3-yl)amino]benzamide], `O=C(NCc1ccco1)c1cccc(Nc2c(-c3ccccc3)nc3cnccn23)c1` [P22449, N-(furan-2-ylmethyl)-3-[(2-phenylimidazo [1,2-a]pyrazin-3-yl)amino]benzamide] is higher in inhibition at 50 µM: 23.9% for the first, 27.5% for the second.

Compared with `COc1ccc(-c2nc3cnccn3c2Nc2ccc(C(=O)NCC3CCCO3)cc2)cc1OC` (centres unmarked) [P22440, 4-[[2-(3,4-dimethoxy-phenyl)imidazo[1,2-a]pyrazin-3-yl]amino]-N-(oxolan-2-ylmethyl)benzamide], `O=C(NCC1CCCO1)c1ccc(Nc2c(-c3ccccc3)nc3cnccn23)cc1` (centres unmarked) [P22463, N-(oxolan-2-ylmethyl)-4-[(2-phenylimidazo [1,2-a]pyrazin-3-yl)amino]benzamide] is lower in inhibition at 50 µM: 33.5% for the first, 25.8% for the second.

Compared with `CC(C)NC(=O)c1ccc(Nc2c(-c3ccc(Cl)cc3)nc3cnccn23)cc1` [P22442, 4-[[2-(4-chlorophenyl)imidazo[1,2-a]pyrazin-3-yl]amino]-N-propan-2-ylbenzamide], `Cc1ccc(-c2nc3cnccn3c2Nc2ccc(C(=O)NC(C)C)cc2)cc1` [P22452, 4-[[2-(4-methylphenyl)imidazo[1,2-a]pyrazin-3-yl]amino]-N-propan-2-ylbenzamide] is lower in inhibition at 50 µM: 37.1% for the first, 33.6% for the second.

Compared with `COc1ccc(-c2nc3cnccn3c2Nc2ccc(C(=O)NCCN(C)C)cc2)cc1` [P22443, N-[2-(dimethylamino)ethyl]-4-[[2-(4-methoxyphenyl)imidazo[1,2-a]pyrazin-3-yl]amino]benzamide], `CN(C)CCNC(=O)c1cccc(Nc2c(-c3ccc(Cl)cc3)nc3cnccn23)c1` [P22457, 3-[[2-(4-chlorophenyl)imidazo[1,2-a]pyrazin-3-yl]amino]-N-[2-(dimethylamino)ethyl]benzamide] is lower in inhibition at 50 µM: 41.2% for the first, 38.6% for the second.

First: O=C(c1ccc(Nc2c(-c3ccccc3)nc3cnccn23)cc1)N1CCCCC1 [P22444, [4-[(2-phenylimidazo [1,2-a]pyrazin-3-yl)amino]phenyl]-piperidin-1-ylmethanone]
Second: O=C(c1cccc(Nc2c(-c3ccccc3)nc3cnccn23)c1)N1CCCCC1 [P22458, [3-[(2-phenylimidazo [1,2-a]pyrazin-3-yl)amino]phenyl]-piperidin-1-ylmethanone]
The inhibition at 50 µM of the first is higher: 43.9% for the first, 35.5% for the second.

Compared with `CSc1ccc(-c2nc3cnccn3c2Nc2cccc(C(=O)NC3CCCCC3)c2)cc1` [P22448, N-cyclohexyl-3-[[2-(4-methylsulfanyl-phenyl)imidazo[1,2-a]pyrazin-3-yl]amino] benzamide], `CSc1ccc(-c2nc3cnccn3c2Nc2ccc(C(=O)NC(C)C)cc2)cc1` [P22462, 4-[[2-(4-methyl-sulfanylphenyl)imidazo [1,2-a]pyrazin-3-yl]amino]-N-propan-2-ylbenzamide] is higher in inhibition at 50 µM: 26.9% for the first, 40.7% for the second.

Going from `CNC(=O)c1ccc(Nc2c(-c3ccccc3)nc3cnccn23)cc1` [P22451, N-methyl-4-[(2-phenyl-imidazo[1,2-a]pyrazin-3-yl)amino] benzamide] to `Cc1ccc(-c2nc3cnccn3c2Nc2ccc(C(=O)NCc3ccco3)cc2)cc1` [P22455, N-(furan-2-ylmethyl)-4-[[2-(4-methyl-phenyl)imidazo[1,2-a]pyrazin-3-yl]amino] benzamide], the inhibition at 50 µM rises from 34.7% to 40.1%.

First: COc1ccc(-c2nc3cnccn3c2Nc2ccc(C(=O)N3CCCCC3)cc2)cc1 [P22454, [4-[[2-(4-methoxy-phenyl)imidazo[1,2-a]pyrazin-3-yl]amino]phenyl]-piperidin-1-ylmethanone]
Second: Cc1ccc(-c2nc3cnccn3c2Nc2ccc(C(=O)N3CCCCC3)cc2)cc1 [P22464, [4-[[2-(4-methyl-phenyl)imidazo[1,2-a]pyrazin-3-yl]amino]phenyl]-piperidin-1-ylmethanone]
The inhibition at 50 µM of the first is higher: 31.8% for the first, 29.6% for the second.

Going from `COc1ccc(-c2nc3cnccn3c2Nc2cccc(C(=O)NCc3ccco3)c2)cc1` [P22459, N-(furan-2-ylmethyl)-3-[[2-(4-methoxy-phenyl)imidazo[1,2-a]pyrazin-3-yl]amino]benzamide] to `CSc1ccc(-c2nc3cnccn3c2Nc2ccc(C(=O)NCc3ccco3)cc2)cc1` [P22465, N-(furan-2-ylmethyl)-4-[[2-(4-methyl-sulfanylphenyl)imidazo [1,2-a]pyrazin-3-yl]amino]benzamide], the inhibition at 50 µM falls from 35.4% to 29.6%.

`COc1ccc(-c2nc3cnccn3c2Nc2ccc(C(=O)N3CCCCC3)cc2)cc1OC` [P22460, [4-[[2-(3,4-dimethoxy-phenyl)imidazo[1,2-a]pyrazin-3-yl]amino]phenyl]-piperidin-1-ylmethanone] was tested, and the inhibition at 50 µM was 31.8%.
